Reference: patent US12281108B2, “Pyrrolidinone derivatives as formyl peptide 2 receptor agonists” (BRISTOL-MYERS SQUIBB COMPANY, priority 2018, dated 2025)

target: T1, human FPR2 receptors (Homo sapiens, UniProt P25090); assay: FPR2 cAMP assay in CHO cells overexpressing human FPR2 (HTRF); type: cell-based; conditions: hFPR2 assay; potency bins; read-out: hFPR2 agonist activity EC50
T1 sequence (P25090 1-351): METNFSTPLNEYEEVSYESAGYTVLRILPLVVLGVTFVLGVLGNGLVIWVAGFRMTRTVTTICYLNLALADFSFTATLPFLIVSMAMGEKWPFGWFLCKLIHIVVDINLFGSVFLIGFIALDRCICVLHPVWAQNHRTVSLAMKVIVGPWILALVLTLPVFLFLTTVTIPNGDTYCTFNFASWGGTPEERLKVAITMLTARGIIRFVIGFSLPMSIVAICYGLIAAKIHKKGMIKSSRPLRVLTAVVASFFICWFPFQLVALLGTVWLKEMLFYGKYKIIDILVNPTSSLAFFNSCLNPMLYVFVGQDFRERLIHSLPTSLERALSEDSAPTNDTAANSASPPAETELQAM
From the text: N-formyl peptide receptors (FPRs) are a family of chemo attractant receptors that facilitate leukocyte response during inflammation. FPRs belong to the seven-transmembrane G protein-coupled receptor superfamily and are linked to inhibitory G-proteins (Gi). Three family members (FPR1, FPR2 and FPR3) have been identified in humans and are predominantly found in myeloid cells with varied distribution and have also been reported in multiple organs and tissues. After agonist binding, the FPRs activate a multitude of physiological pathways, such as intra cellular signaling transduction, Ca^2+ mobilization and transcription. The family interacts with a diverse set of ligands that includes proteins, polypeptides and fatty acid metabolites which activate both pro-inflammatory and pro-resolution downstream responses. FPR2 and FPR1 Cyclic Adenosine Monophosphate (cAMP) Assays were used to measure the in vitro activity of the compounds disclosed in this application.
FPR2 and FPR1 Cyclic Adenosine Monophosphate (cAMP) Assays. A mixture of forskolin (5 μM final for FPR2 or 10 μM final for FPR1) and IBMX (200 μM final) were added to 384-well Proxiplates (Perkin-Elmer) pre-dotted with test compounds in DMSO (1% final) at final concentrations in the range of 0.020 nM to 100 μM. Chinese Hamster Ovary cells (CHO) overexpressing human FPR1 or human FPR2 receptors were cultured in F-12 (Ham's) medium supplemented with 10% qualified FBS, 250 μg/ml zeocin and 300 μg/ml hygromycin (Life Technologies). Reactions were initiated by adding 2,000 human FPR2 cells per well or 4,000 human FPR1 cells per well in Dulbecco's PBS (with calcium and magnesium) (Life Technologies) supplemented with 0.1% BSA (Perkin-Elmer). The reaction mixtures were incubated for 30 min at room temperature. The level of intracellular cAMP was determined using the HTRF HiRange cAMP assay reagent kit (Cisbio) according to manufacturer's instruction. Solutions of cryptate conjugated anti-cAMP and d2 flurorophore-labelled cAMP were made in a supplied lysis buffer separately. Upon completion of the reaction, the cells were lysed with equal volume of the d2-cAMP solution and anti-cAMP solution. After a 1-h room temperature incubation, time-resolved fluorescence intensity was measured using the Envision (Perkin-Elmer) at 400 nm excitation and dual emission at 590 nm and 665 nm. A calibration curve was constructed with an external cAMP standard at concentrations ranging from 1 μM to 0.1 pM by plotting the fluorescent intensity ratio from 665 nm emission to the intensity from the 590 nm emission against cAMP concentrations. The potency and activity of a compound to inhibit cAMP production was then determined by fitting to a 4-parametric logistic equation from a plot of cAMP level versus compound concentrations.

| SMILES | EC50 |
| --- | --- |
| COc1cc(F)c([C@@H]2CNC(=O)[C@H]2Nc2nnc(-c3ccc(Cl)nc3)s2)c(F)c1 [Example 31, (3S,4R)-3-{[5-(6-chloropyridin-3-yl)-1,3,4-thiadiazol-2-yl]amino}-4-(2,6-difluoro-4-methoxyphenyl)pyrrolidin-2-one] | 40 to 150 nM |
| COc1cc(F)c([C@@H]2CNC(=O)[C@H]2Nc2nnc(-c3ccc(F)cc3)s2)c(F)c1 [Example 32, (3S,4R)-4-(2,6-difluoro-4-methoxyphenyl)-3-{[5-(4-fluorophenyl)-1,3,4-thiadiazol-2-yl]amino}pyrrolidin-2-one] | 40 to 150 nM |
| COc1cc(F)c([C@@H]2CNC(=O)[C@H]2Nc2nnc(-c3ccc(C(F)(F)F)nc3)s2)c(F)c1 [Example 33, (3S,4R)-4-(2,6-difluoro-4-methoxyphenyl)-3-({5-[6-(trifluoromethyl)pyridin-3-yl]-1,3,4-thiadiazol-2-yl}amino)pyrrolidin-2-one] | 150 to 1000 nM |
| CCCCOc1ccc(-c2nnc(N[C@@H]3C(=O)NC[C@H]3c3c(F)cc(OC)cc3F)o2)cc1 [Example 34, (3S,4R)-3-{[5-(4-butoxyphenyl)-1,3,4-oxadiazol-2-yl]amino}-4-(2,6-difluoro-4-methoxyphenyl)pyrrolidin-2-one] | 40 to 150 nM |
| COc1cc(F)c([C@@H]2CNC(=O)[C@H]2Nc2nnc(-c3ccc(Oc4ccccc4)cc3)o2)c(F)c1 [Example 35, (3S,4R)-4-(2,6-difluoro-4-methoxyphenyl)-3-{[5-(4-phenoxyphenyl)-1,3,4-oxadiazol-2-yl]amino}pyrrolidin-2-one] | ≤ 40 nM |
| COc1cc(F)c([C@@H]2CNC(=O)[C@H]2Nc2nnc(-c3ccc(OC(F)F)cc3)o2)c(F)c1 [Example 37, (3S,4R)-4-(2,6-difluoro-4-methoxyphenyl)-3-({5-[4-(difluoromethoxy)phenyl]-1,3,4-oxadiazol-2-yl}amino)pyrrolidin-2-one] | 150 to 1000 nM |
| COc1cc(F)c([C@@H]2CNC(=O)[C@H]2Nc2nnc(-c3ccc(C4CC4)cc3)o2)c(F)c1 [Example 38, (3S,4R)-3-{[5-(4-cyclopropylphenyl)-1,3,4-oxadiazol-2-yl]amino}-4-(2,6-difluoro-4-methoxyphenyl)pyrrolidin-2-one] | 150 to 1000 nM |
| COc1cc(F)c([C@@H]2CNC(=O)[C@H]2Nc2nnc(-c3ccc(C(C)C)cc3)o2)c(F)c1 [Example 39, (3S,4R)-4-(2,6-difluoro-4-methoxyphenyl)-3-({5-[4-(propan-2-yl)phenyl]-1,3,4-oxadiazol-2-yl}amino)pyrrolidin-2-one] | 150 to 1000 nM |
| COc1cc(F)c([C@@H]2CNC(=O)[C@H]2Nc2nnc(-c3ccc(Oc4ccc(Cl)cc4)cc3)o2)c(F)c1 [Example 40, (3S,4R)-3-({5-[4-(4-chlorophenoxy)phenyl]-1,3,4-oxadiazol-2-yl}amino)-4-(2,6-difluoro-4-methoxyphenyl)pyrrolidin-2-one] | ≤ 40 nM |
| COc1cc(F)c([C@@H]2CNC(=O)[C@H]2Nc2nnc(C3CC3c3ccc(Cl)cc3)o2)c(F)c1 (stereo partly drawn) [Example 41, (3S,4R)-3-({5-[2-(4-chlorophenyl)cyclopropyl]-1,3,4-oxadiazol-2-yl}amino)-4-(2,6-difluoro-4-methoxyphenyl)pyrrolidin-2-one] | ≤ 40 nM |
| COc1cc(F)c([C@@H]2CNC(=O)[C@H]2Nc2nnc(C3CC3c3cc(F)cc(F)c3)o2)c(F)c1 (stereo partly drawn) [Example 42, (3S,4R)-4-(2,6-difluoro-4-methoxyphenyl)-3-({5-[2-(3,5-difluorophenyl)cyclopropyl]-1,3,4-oxadiazol-2-yl}amino)pyrrolidin-2-one] | 40 to 150 nM |
| COc1cc(F)c([C@@H]2CNC(=O)[C@H]2Nc2nnc(C3CC3c3ccccc3OC)o2)c(F)c1 (stereo partly drawn) [Example 44, (3S,4R)-4-(2,6-difluoro-4-methoxyphenyl)-3-({5-[2-(2-methoxyphenyl)cyclopropyl]-1,3,4-oxadiazol-2-yl}amino)pyrrolidin-2-one] | 40 to 150 nM |
| COc1cc(F)c([C@@H]2CNC(=O)[C@H]2Nc2nnc(C3CC3c3cccc(Cl)c3)o2)c(F)c1 (stereo partly drawn) [Example 45, (3S,4R)-3-({5-[2-(3-chlorophenyl)cyclopropyl]-1,3,4-oxadiazol-2-yl}amino)-4-(2,6-difluoro-4-methoxyphenyl)pyrrolidin-2-one] | ≤ 40 nM |
| COc1cc(F)c([C@@H]2CNC(=O)[C@H]2Nc2nnc(C3CC3c3ccc(Cl)cc3F)o2)c(F)c1 (stereo partly drawn) [Example 46, (3S,4R)-3-({5-[2-(4-chloro-2-fluorophenyl)cyclopropyl]-1,3,4-oxadiazol-2-yl}amino)-4-(2,6-difluoro-4-methoxyphenyl)pyrrolidin-2-one] | ≤ 40 nM |
| COc1cc(F)c([C@@H]2CNC(=O)[C@H]2Nc2nnc(-c3ccc(Oc4cc(C#N)ccn4)cc3)o2)c(F)c1 [Example 48, 2-[4-(5-{[(3S,4R)-4-(2,6-difluoro-4-methoxyphenyl)-2-oxopyrrolidin-3-yl]amino}-1,3,4-oxadiazol-2-yl)phenoxy]pyridine-4-carbonitrile] | 40 to 150 nM |
| COc1cc(F)c([C@@H]2CNC(=O)[C@H]2Nc2nnc(-c3ccc(Oc4cnccn4)cc3)o2)c(F)c1 [Example 49, (3S,4R)-4-(2,6-difluoro-4-methoxyphenyl)-3-({5-[4-(pyrazin-2-yloxy)phenyl]-1,3,4-oxadiazol-2-yl}amino)pyrrolidin-2-one] | 40 to 150 nM |
| COc1cc(F)c([C@@H]2CNC(=O)[C@H]2Nc2noc3cc(Cl)ccc23)c(F)c1 [Example 50, (3S,4R)-3-[(6-chloro-1,2-benzoxazol-3-yl)amino]-4-(2,6-difluoro-4-methoxyphenyl)pyrrolidin-2-one] | ≤ 40 nM |
| COc1cc(F)c([C@@H]2CNC(=O)[C@H]2Nc2nnc(C(=O)NCc3ccc(Cl)cc3)o2)c(F)c1 [Example 53, N-[(4-chlorophenyl)methyl]-5-{[(3S,4R)-4-(2,6-difluoro-4-methoxyphenyl)-2-oxopyrrolidin-3-yl]amino}-1,3,4-oxadiazole-2-carboxamide] | 40 to 150 nM |
| COc1cc(F)c([C@@H]2CNC(=O)[C@H]2Nc2nnc(C(=O)NCCc3ccc(Cl)cc3)o2)c(F)c1 [Example 54, N-[2-(4-chlorophenyl)ethyl]-5-{[(3S,4R)-4-(2,6-difluoro-4-methoxyphenyl)-2-oxopyrrolidin-3-yl]amino}-1,3,4-oxadiazole-2-carboxamide] | 150 to 1000 nM |
| COc1cc(F)c([C@@H]2CNC(=O)[C@H]2Nc2nnc(-c3ccc(Oc4ccc(Cl)cn4)cc3)o2)c(F)c1 [Example 55, (3S,4R)-3-[(5-{4-[(5-chloropyridin-2-yl)oxy]phenyl}-1,3,4-oxadiazol-2-yl)amino]-4-(2,6-difluoro-4-methoxyphenyl)pyrrolidin-2-one] | ≤ 40 nM |
| COc1cc(F)c([C@@H]2CNC(=O)[C@H]2Nc2nnc(-c3ccc(Oc4ccc(C#N)cc4)cc3)o2)c(F)c1 [Example 57, 4-[4-(5-{[(3S,4R)-4-(2,6-difluoro-4-methoxyphenyl)-2-oxopyrrolidin-3-yl]amino}-1,3,4-oxadiazol-2-yl)phenoxy]benzonitrile] | 40 to 150 nM |
| COc1cc(F)c([C@@H]2CNC(=O)[C@H]2Nc2nnc(-c3ccc(Oc4cnc(Cl)cn4)cc3)o2)c(F)c1 [Example 60, (3S,4R)-3-[(5-{4-[(5-chloropyrazin-2-yl)oxy]phenyl}-1,3,4-oxadiazol-2-yl)amino]-4-(2,6-difluoro-4-methoxyphenyl)pyrrolidin-2-one] | 40 to 150 nM |
